This is an account of results in patent publication US20100310665A1, “BACTERIOSTATIC OR BACTERIOCIDAL COMPOSITIONS AND METHODS” (Revalesio Corporation, priority 2007, published 2010).

This assay relates to Methicillin-Resistant Staphylococcus Aureus (MRSA). The experiment in a line: MRSA bacteriocidal effects, plates with no growth. More on the design: concentration or dose not given beside the values. The conditions noted are these: fluids in combination with oxacillin. The format is cell-based.

In the case of `Cc1onc(-c2ccccc2)c1C(=O)N[C@@H]1C(=O)N2[C@@H]1SC(C)(C)[C@@H]2C(=O)O` [Drug, oxacillin], the “Percentage of plates with no growth at indicated time” value (“Percentage of plates with no growth” below) (0 min) is 16.67%; the “Percentage of plates with no growth” value (30 min) is given as 0.00%; the “Percentage of plates with no growth” value (120 min) was found to be 0.00%; the “Percentage of plates with no growth” value (240 min) worked out at 0.00%; the “Percentage of plates with no growth” value (480 min) came out at 0.00%; the “Percentage of plates with no growth” value (1080 min) amounted to 0.00%. Moreover, where the note is “1440 min”, the “Percentage of plates with no growth” value was 0.00%.
